Measured values taken from patent US10226045B2, “Azoline compounds” (priority 2014, dated 2019).

Legend:
Type in all cases: in vivo
[1] = test system: Diamond Back Moth (Plutella xylostella); assay: Diamond back moth, cabbage leaf dip test; settings: foliar, 72 h
Experimental: B.1 Diamond Back Moth (Plutella xylostella)
The active compound was dissolved at the desired concentration in a mixture of 1:1 (vol:vol) distilled water:aceteone. Surfactant (Kinetic HV) was added at a rate of 0.01% (vol/vol). The test solution was prepared at the day of use.
Leaves of cabbage were dipped in test solution and air-dried. Treated leaves were placed in petri dishes lined with moist filter paper and inoculated with ten 3rd instar larvae. Mortality was recorded 72 hours after treatment.

[2] = test system: Green Peach Aphid (Myzus persicae); assay: Green peach aphid, systemic test on artificial diet in microtiter plates; settings: 72 h
Description: B.2 Green Peach Aphid (Myzus persicae)
For evaluating control of green peach aphid (Myzus persicae) through systemic means the test unit consisted of 96-well-microtiter plates containing liquid artificial diet under an artificial mem brane.
The compounds were formulated using a solution containing 75% v/v water and 25% v/v DMSO. Different concentrations of formulated compounds were pipetted into the aphid diet, using a custom built pipetter, at two replications.
After application, 5-8 adult aphids were placed on the artificial membrane inside the microtiter plate wells. The aphids were then allowed to suck on the treated aphid diet and incubated at about 23±1° C. and about 50±5% relative humidity for 3 days. Aphid mortality and fecundity was then visually assessed.

[3] = test system: Vetch Aphid (Megoura viciae); assay: Vetch aphid, broad bean leaf disk test; settings: foliar, 120 h
Experimental: B.3 Vetch Aphid (Megoura viciae)
For evaluating control of vetch aphid (Megoura viciae) through contact or systemic means the test unit consisted of 24-well-microtiter plates containing broad bean leaf disks.
The compounds were formulated using a solution containing 75% v/v water and 25% v/v DMSO. Different concentrations of formulated compounds were sprayed onto the leaf disks at 2.5 μl, using a custom built micro atomizer, at two replications.
After application, the leaf disks were air-dried and 5-8 adult aphids placed on the leaf disks inside the microtiter plate wells. The aphids were then allowed to suck on the treated leaf disks and incubated at about 23±1° C. and about 50±5% relative humidity for 5 days. Aphid mortality and fecundity was then visually assessed.

[4] = test system: Tobacco Budworm (Heliothis virescens); assay: Tobacco budworm, insect diet microtiter plate test; settings: 120 h
Experimental: B.4 Tobacco Budworm (Heliothis virescens)
For evaluating control of tobacco budworm (HeliothiS virescens) the test unit consisted of 96-well-microtiter plates containing an insect diet and 15-25 H. virescens eggs.
The compounds were formulated using a solution containing 75% v/v water and 25% v/v DMSO. Different concentrations of formulated compounds were sprayed onto the insect diet at 10 μl, using a custom built micro atomizer, at two replications.
(§1) After application, microtiter plates were incubated at about 28±1° C. and about 80±5% relative humidity for 5 days. Egg and larval mortality was then visually assessed.

[5] = test system: Boll Weevil (Anthonomus grandis); assay: Boll weevil, insect diet microtiter plate test; settings: 120 h
Experimental: B.5 Boll Weevil (Anthonomus grandis)
For evaluating control of boll weevil (Anthonomus grandis) the test unit consisted of 96-well-microtiter plates containing an insect diet and 5-10 A. grandis eggs.
The compounds were formulated using a solution containing 75% v/v water and 25% v/v DMSO. Different concentrations of formulated compounds were sprayed onto the insect diet at 5 μl, using a custom built micro atomizer, at two replications.
After application, microtiter plates were incubated at about 25±1° C. and about 75±5% relative humidity for 5 days. Egg and larval mortality was then visually assessed.

[6] = test system: Mediterranean Fruitfly (Ceratitis capitata); assay: Mediterranean fruitfly, insect diet microtiter plate test; settings: 120 h
Experimental: B.6 Mediterranean Fruitfly (Ceratitis capitata)
For evaluating control of Mediterranean fruitfly (CeratitiS capitata) the test unit consisted of microtiter plates containing an insect diet and 50-80 C. capitata eggs. The compounds were formulated using a solution containing 75% v/v water and 25% v/v DMSO. Different concentrations of formulated compounds were sprayed onto the insect diet at 5 μl, using a custom built micro atomizer, at two replications.
as §1

[7] = test system: Orchid Thrips (dichromothrips corbetti); assay: Orchid thrips, floral-immersion technique; settings: Thrips, 72 h
Experimental: B.7 Orchid Thrips (dichromothrips corbetti)
Dichromothrips corbetti adults used for bioassay were obtained from a colony maintained continuously under laboratory conditions. For testing purposes, the test compound is diluted in a 1:1 mixture of acetone:water (vol:vol), plus Kinetic HV at a rate of 0.01% v/v.
Thrips potency of each compound was evaluated by using a floral-immersion technique. All petals of individual, intact orchid flowers were dipped into treatment solution and allowed to dry in Petri dishes. Treated petals were placed into individual re-sealable plastic along with about 20 adult thrips. All test arenas were held under continuous light and a temperature of about 28° C. for duration of the assay. After 3 days, the numbers of live thrips were counted on each petal. The percent mortality was recorded 72 hours after treatment.

[8] = test system: Rice Green Leafhopper (Nephotettix virescens); assay: Rice green leafhopper, sprayed rice seedlings; settings: 72 h
Experimental: B.8 Rice Green Leafhopper (Nephotettix virescens)
Rice seedlings were cleaned and washed 24 hours before spraying. The active compounds were formulated in 1:1 acetone:water (vol:vol), and 0.01% vol/vol surfactant (Kinetic HV) was added. Potted rice seedlings were sprayed with 5-6 ml test solution, air dried, covered with Mylar cages cages and inoculated with 10 adults. Treated rice plants were kept at about 28-29° C. and relative humidity of about 50-60%. Percent mortality was recorded after 72 hours.

[9] = test system: Red Spider Mite (Tetranychus kanzawai); assay: Red spider mite, sprayed cowpea beans; settings: 72 h
Experimental: B.9 Red Spider Mite (Tetranychus kanzawai)
The active compound was dissolved at the desired concentration in a mixture of 1:1 (vol:vol) distilled water:acetone. Add surfactant (Kinetic HV) was added at a rate of 0.01% (vol/vol). The test solution was prepared at the day of use.
Potted cowpea beans of 4-5 days of age were cleaned with tap water and sprayed with 1-2 ml of the test solution using air driven hand atomizer. The treated plants were allowed to air dry and afterwards inoculated with 30 or more mites by clipping a cassava leaf section from rearing population. Treated plants were placed inside a holding room at about 25-27° C. and about 50-60% relative humidity. Percent mortality was assessed 72 hours after treatment.

[10] = test system: Southern Armyworm (Spodoptera eridania); assay: Southern armyworm, sprayed lima bean plants; settings: 96 h
Experimental: B.10 Southern Armyworm (Spodoptera eridania)
The active compounds were formulated in cyclohexanone as a 10,000 ppm solution supplied in tubes. The tubes were inserted into an automated electrostatic sprayer equipped with an atomizing nozzle and they served as stock solutions for which lower dilutions were made in 50% acetone:50% water (v/v). A nonionic surfactant (Kinetic®) was included in the solution at a volume of 0.01% (v/v).
Lima bean plants (variety Sieva) were grown 2 plants to a pot and selected for treatment at the 1st true leaf stage. Test solutions were sprayed onto the foliage by an automated electrostatic plant sprayer equipped with an atomizing spray nozzle. The plants were dried in the sprayer fume hood and then removed from the sprayer. Each pot was placed into perforated plastic bags with a zip closure. About 10 to 11 armyworm larvae were placed into the bag and the bags zipped closed. Test plants were maintained in a growth room at about 25° C. and about 20-40% relative humidity for 4 days, avoiding direct exposure to fluorescent light (24 hour photoperiod) to prevent trapping of heat inside the bags. Mortality and reduced feeding were assessed 4 days after treatment, compared to untreated control plants.

[11] = test system: Green Soldier Stink Bug (Nezara viridula); assay: Green soldier stink bug, sprayed soybean pods in Petri dishes; settings: 120 h
Experimental: B.11 Green Soldier Stink Bug (Nezara viridula)
The active compound was dissolved at the desired concentration in a mixture of 1:1 (vol:vol) distilled water:acetone. Surfactant (Kinetic HV) was added at a rate of 0.01% (vol/vol). The test solution was prepared at the day of use.
Soybean pods were placed in glass Petri dishes lined with moist filter paper and inoculated with ten late 3rd instar N. viridula. Using a hand atomizer, approximately 2 ml solution is sprayed into each Petri dish. Assay arenas were kept at about 25° C. Percent mortality was recorded after 5 days.

[12] = test system: Neotropical Brown Stink Bug (Euschistus heros); assay: Neotropical brown stink bug, sprayed soybean pods in cups; settings: 120 h
Experimental: B.12 Neotropical Brown Stink Bug (Euschistus heros)
(§2) The active compound was dissolved at the desired concentration in a mixture of 1:1 (vol:vol) distilled water: acetone. Surfactant (Kinetic HV) was added at a rate of 0.01% (vol/vol). The test solution was prepared at the day of use.
Soybean pods were placed in microwavable plastic cups and inoculated with ten adult stage E. heros. Using a hand atomizer, approximately 1 ml solution is sprayed into each cup, insects and food present. A water source was provided (cotton wick with water). Each treatment was replicated 2-fold. Assay arenas were kept at about 25° C. Percent mortality was recorded after 5 days.

[13] = test system: Brown Marmorated Stink Bug (Halyomorpha halys); assay: Brown marmorated stink bug, sprayed peanuts and soybean seeds in cups; settings: 120 h
Experimental: B.13 Brown Marmorated Stink Bug (Halyomorpha halys)
as §2
Row peanuts and soybean seeds were placed into microwavable plastic cups and inoculated with five adult stage H. halys. Using a hand atomizer, approximately 1 ml solution is sprayed into each cup, insects and food present. A water source was provided (cotton wick with water). Each treatment is replicated 4-fold. Assay arenas are kept at about 25° C. Percent mortality was recorded after 5 days.

O=C(NCc1ccccn1)c1ccc(C2=NOC(c3cc(Cl)cc(Cl)c3)(C(F)(F)F)C2)c2c1CCC2 (stereo not shown) [Compound 1-27, 7-[5-(3,5-dichlorophenyl)-5-(trifluoromethyl)-4H-isoxazol-3-yl]-N-(2-pyridylmethyl)indane-4-carboxamide]
≥ 75%: mortality at 300 ppm [1] | mortality at 2500 ppm [2] | mortality at 2500 ppm [3] | mortality at 2500 ppm [4] | mortality at 2500 ppm [5] | mortality at 2500 ppm [6] | mortality at 300 ppm [7] | mortality at 300 ppm [8] | mortality at 300 ppm [9] | mortality at 1 ppm [10] | mortality at 300 ppm [11] | mortality at 100 ppm [12] | mortality at 100 ppm [13]
